Measured values taken from PubChem BioAssay (NCI).
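Each compound was tested at five concentrations against cells in 96-well plates for 48 hours. The concentration for full growth arrest is given as TGI.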

What was measured:
Test in all cases: NCI-60 cell line screen, 48 h
786-0 renal = tested on: 786-0 renal
A498 renal = tested on: A498 renal
A549 NSCLC = tested on: A549 NSCLC
ACHN renal = tested on: ACHN renal
CAKI-1 renal = tested on: CAKI-1 renal
CCRF-CEM leukemia = tested on: CCRF-CEM leukemia
COLO 205 colon = tested on: COLO 205 colon
DU-145 prostate = tested on: DU-145 prostate
EKVX NSCLC = tested on: EKVX NSCLC
HCC-2998 colon = tested on: HCC-2998 colon
HCT-116 colon = tested on: HCT-116 colon
HCT-15 colon = tested on: HCT-15 colon
HL-60(TB) leukemia = tested on: HL-60(TB) leukemia
HOP-62 NSCLC = tested on: HOP-62 NSCLC
HOP-92 NSCLC = tested on: HOP-92 NSCLC
HS 578T breast = tested on: HS 578T breast
HT29 colon = tested on: HT29 colon
IGROV1 ovarian = tested on: IGROV1 ovarian
K-562 leukemia = tested on: K-562 leukemia
KM12 colon = tested on: KM12 colon
LOX IMVI melanoma = tested on: LOX IMVI melanoma
M14 melanoma = tested on: M14 melanoma
MALME-3M melanoma = tested on: MALME-3M melanoma
MDA-MB-231 breast = tested on: MDA-MB-231 breast
MDA-MB-435 = tested on: MDA-MB-435
MOLT-4 leukemia = tested on: MOLT-4 leukemia
NCI-H226 lung = tested on: NCI-H226 lung
NCI-H23 lung = tested on: NCI-H23 lung
NCI-H460 lung = tested on: NCI-H460 lung
NCI-H522 lung = tested on: NCI-H522 lung
NCI/ADR-RES ovarian = tested on: NCI/ADR-RES ovarian
OVCAR-3 ovarian = tested on: OVCAR-3 ovarian
OVCAR-4 ovarian = tested on: OVCAR-4 ovarian
OVCAR-5 ovarian = tested on: OVCAR-5 ovarian
OVCAR-8 ovarian = tested on: OVCAR-8 ovarian
PC-3 prostate = tested on: PC-3 prostate
RPMI-8226 leukemia = tested on: RPMI-8226 leukemia
RXF 393 renal = tested on: RXF 393 renal
SF-268 CNS = tested on: SF-268 CNS
SF-295 CNS = tested on: SF-295 CNS
SK-MEL-2 melanoma = tested on: SK-MEL-2 melanoma
SK-MEL-28 melanoma = tested on: SK-MEL-28 melanoma
SK-MEL-5 melanoma = tested on: SK-MEL-5 melanoma
SK-OV-3 ovarian = tested on: SK-OV-3 ovarian
SNB-19 CNS = tested on: SNB-19 CNS
SNB-75 CNS = tested on: SNB-75 CNS
SR leukemia = tested on: SR leukemia
SW-620 colon = tested on: SW-620 colon
T-47D breast = tested on: T-47D breast
TK-10 renal = tested on: TK-10 renal
U251 CNS = tested on: U251 CNS
UACC-257 melanoma = tested on: UACC-257 melanoma
UACC-62 melanoma = tested on: UACC-62 melanoma
UO-31 renal = tested on: UO-31 renal
BT-549 breast = tested on: BT-549 breast
MCF7 breast = tested on: MCF7 breast
SF-539 CNS = tested on: SF-539 CNS
SN12C renal = tested on: SN12C renal

Measured: TGI

COc1cc(OC)cc(Oc2nc3ccccc3nc2C(=O)O)c1
not listed: BT-549 breast | MCF7 breast | SF-539 CNS | SN12C renal
> 100 µM: all other assays above

Cc1nc(Cl)nc(Cl)c1C
not listed: A498 renal | CAKI-1 renal | COLO 205 colon | DU-145 prostate | HCT-116 colon | HOP-92 NSCLC | MDA-MB-231 breast | T-47D breast | UACC-62 melanoma
> 100 µM: all other assays above
